Assay results reported in patent EP0722725A1, “VASCULAR SMOOTH MUSCLE CELL MIGRATION INHIBITOR” (TEIJIN LIMITED, priority 1994, dated 1996).

Experiments:
[1] = test system: vascular smooth muscle cell derived from a human normal aorta; experiment: Measurement of the inhibition activity on cell migration (PDGF-mediated, Transwell Chamber); assay type: cell-based; conditions: concentration of 10^-7M; migration mediated by human PDGF 10 ng/ml, 6 hours; compared with the cell migration counts where no test compound was added; read-out: inhibition activities on cell migration
Experimental: A Transwell Chamber (Costar Co., registered trademark) was used to measure the inhibitory activity. The chamber is divided into a lower and a upper chamber with an 8-µm pore size membrane filter (PVP-free polycarbonate filter, Nucleopore Co., registered trademark), and the filter was pretreated on its lower surface with 5 µg of rat tail collagen type 1 (Becton Dickinson Co.). To the upper chamber was added 100 µl of a 1.5 x 10^6/ml suspension of cells in a mixed solution of DMEM (supplied by Flow Laboratories Co.) and 0.1% BSA (supplied by Nakarai Tesque Co.), and a solution of human PDGF (supplied by Becton Dickinson Co.), which is prepared by diluting with the same mixed solution to giving the final concentration of 10 ng/ml, is filled in the lower chamber (600 µl). […] After the chamber was allowed to stand under 5%-CO2 atmosphere at 37°C For 6 hours, the filter was taken out. […] After cells adhered on the upper surface of the filter were removed with a cotton swab, the cells migrated to the lower surface were counted under a high-magnifying-power microscope (x200, x400) in terms of cell nuclei. Usually, five fields were counted per filter. Cell migration was expressed by the average cell count of the five fields ± the standard deviation. The significant difference was examined by Student's two-tailed t-test.

[2] = Acute toxicity; assay type: in vivo; conditions: no method, species or dose given

Which results are given for `CCCC[C@H](C)C[C@H](O)/C=C/[C@@H]1[C@H]2CC(CCc3ccc(C(=O)OC)cc3)=C[C@H]2C[C@H]1O` [compound 5e]?
inhibition at 0.1 µM [1]: 13.9%; acute toxicity [2]: neither of the compounds 5e and 6b had problem with acute toxicity
